{"source": "paper PMC5484023", "about": "“Multi-site binding of epigallocatechin gallate to human serum albumin measured by NMR and isothermal titration calorimetry” (Bioscience Reports, 2017)", "molecular_target": "T1, human serum albumin (HSA) (Homo sapiens, UniProt P02768)", "T1 construct": "gene ALB; full-length, fatty acid and globulin-free HSA purified from serum", "T1 sequence (P02768 25-609)": "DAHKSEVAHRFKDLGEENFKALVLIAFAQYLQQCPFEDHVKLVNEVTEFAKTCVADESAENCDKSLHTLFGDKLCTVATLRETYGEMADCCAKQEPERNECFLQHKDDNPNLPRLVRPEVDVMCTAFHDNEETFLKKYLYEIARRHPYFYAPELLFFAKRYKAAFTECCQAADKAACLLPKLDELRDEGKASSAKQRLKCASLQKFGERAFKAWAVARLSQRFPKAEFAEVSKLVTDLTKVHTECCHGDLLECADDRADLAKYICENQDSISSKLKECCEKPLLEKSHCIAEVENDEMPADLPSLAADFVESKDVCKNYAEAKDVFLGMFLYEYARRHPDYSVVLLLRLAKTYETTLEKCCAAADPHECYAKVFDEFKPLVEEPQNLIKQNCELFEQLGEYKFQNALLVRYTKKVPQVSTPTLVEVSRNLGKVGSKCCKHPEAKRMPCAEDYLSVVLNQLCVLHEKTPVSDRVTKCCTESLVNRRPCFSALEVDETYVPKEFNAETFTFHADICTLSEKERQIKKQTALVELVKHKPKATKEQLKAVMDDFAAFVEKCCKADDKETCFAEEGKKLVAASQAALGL", "test": "ITC ([…]°C, pH […]), two sets of independent sites; confirmed by 1H NMR chemical shift titration (Kd1 […])", "assay_type": "binding", "data": [{"smiles": "O=C(O[C@@H]1Cc2c(O)cc(O)cc2O[C@@H]1c1cc(O)c(O)c(O)c1)c1cc(O)c(O)c(O)c1", "note": "[epigallocatechin gallate]", "values": [{"measurement": "Kd", "value": "22 ± 4", "unit": "µM"}]}]}
